Experimental data from PubChem BioAssay AID602426 (Sanford-Burnham Center for Chemical Genomics, 2012).

Target: Neurotensin receptor type 1 (Homo sapiens) (UniProt P30989)
Assay: NTR1 agonists, beta-arrestin spot formation, SAR follow-up, imaging, image-based, set 4 (AID 602426)
Conditions: NTR1-U2OS beta-arrestin-GFP spot imaging

Chain of Neurotensin receptor type 1 (Homo sapiens) (P30989 whole entry, looked up): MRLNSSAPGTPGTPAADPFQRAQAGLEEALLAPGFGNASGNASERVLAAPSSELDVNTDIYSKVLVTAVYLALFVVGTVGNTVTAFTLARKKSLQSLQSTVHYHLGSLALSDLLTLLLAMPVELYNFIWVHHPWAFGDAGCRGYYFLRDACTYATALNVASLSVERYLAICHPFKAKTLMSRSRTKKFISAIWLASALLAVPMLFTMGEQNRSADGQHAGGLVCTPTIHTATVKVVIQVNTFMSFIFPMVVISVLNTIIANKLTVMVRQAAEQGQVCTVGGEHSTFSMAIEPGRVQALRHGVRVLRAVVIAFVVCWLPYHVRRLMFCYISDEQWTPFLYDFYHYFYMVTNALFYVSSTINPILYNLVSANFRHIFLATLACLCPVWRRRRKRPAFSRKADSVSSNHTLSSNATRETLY

COc1cccc(OC)c1-c1cc(C(=O)N[C@@H](CC(C)C)C(=O)O)nn1-c1ccnc2cc(Cl)ccc12
EC50: 925 nM
